Source: ChEMBL document CHEMBL4373629, “Dual inhibitors of LSD1 and spermine oxidase” (Medchemcomm, 2019)
Calls of active or inactive are those of the source. The rule behind the calls is not given here.

Legend:
[1] = target: Peroxisomal N(1)-acetyl-spermine/spermidine oxidase (Homo sapiens, UniProt Q6QHF9); assay: Inhibition of PAOX (unknown origin) assessed as decrease in spermidine formation using N-acetylspermine as substrate treated with compound 2 mins prior to substrate addition followed by further incubation for 1 hr by HPLC analysis
Chain of Peroxisomal N(1)-acetyl-spermine/spermidine oxidase (Q6QHF9 whole entry): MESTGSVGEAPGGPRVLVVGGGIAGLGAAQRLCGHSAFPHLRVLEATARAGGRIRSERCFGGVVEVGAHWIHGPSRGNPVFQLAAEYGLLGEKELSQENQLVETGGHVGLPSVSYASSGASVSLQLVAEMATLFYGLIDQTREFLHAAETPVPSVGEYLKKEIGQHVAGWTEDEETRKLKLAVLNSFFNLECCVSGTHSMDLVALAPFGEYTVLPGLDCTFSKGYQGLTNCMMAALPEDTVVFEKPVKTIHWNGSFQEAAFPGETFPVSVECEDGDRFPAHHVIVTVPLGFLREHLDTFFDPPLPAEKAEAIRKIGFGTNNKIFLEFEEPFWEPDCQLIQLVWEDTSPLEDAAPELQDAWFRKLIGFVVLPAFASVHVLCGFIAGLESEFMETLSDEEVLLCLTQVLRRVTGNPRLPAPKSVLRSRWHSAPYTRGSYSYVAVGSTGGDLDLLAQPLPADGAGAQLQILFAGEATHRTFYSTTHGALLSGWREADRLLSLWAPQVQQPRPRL

Spermine oxidase [2] = target: T1, Spermine oxidase (Homo sapiens, UniProt Q9NWM0); assay: Inhibition of SMOX (unknown origin) assessed as decrease in spermidine formation using spermine as substrate at 10 uM treated with compound 2 mins prior to substrate addition followed by further incubation for 1 hr by HPLC analysis relative to control
T1 sequence (Q9NWM0 whole entry): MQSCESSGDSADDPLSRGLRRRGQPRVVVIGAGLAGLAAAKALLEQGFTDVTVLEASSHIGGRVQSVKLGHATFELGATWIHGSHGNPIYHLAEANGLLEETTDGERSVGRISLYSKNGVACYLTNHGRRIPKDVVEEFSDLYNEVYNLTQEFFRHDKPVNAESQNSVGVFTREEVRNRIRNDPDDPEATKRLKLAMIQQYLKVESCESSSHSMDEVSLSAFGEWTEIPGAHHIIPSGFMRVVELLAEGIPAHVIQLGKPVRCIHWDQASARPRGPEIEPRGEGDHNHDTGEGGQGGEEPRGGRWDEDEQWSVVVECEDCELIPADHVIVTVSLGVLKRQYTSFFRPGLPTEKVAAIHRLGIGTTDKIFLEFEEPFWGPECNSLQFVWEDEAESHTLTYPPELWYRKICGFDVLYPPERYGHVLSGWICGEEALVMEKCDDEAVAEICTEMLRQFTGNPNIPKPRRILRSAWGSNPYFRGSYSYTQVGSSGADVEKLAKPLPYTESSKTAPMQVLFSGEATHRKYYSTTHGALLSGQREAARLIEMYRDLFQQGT

Spermine oxidase [3] = target: T1, Spermine oxidase; assay: Potency index, ratio of MDL72527 IC50 to compound IC50 for SMOX (unknown origin) using spermine as substrate treated with compound 2 mins prior to substrate addition followed by further incubation for 1 hr by HPLC analysis
BXPC-3 [4] = assay: cells; conditions: Homo sapiens, BXPC-3, 72 h
Description: Antiproliferative activity against human BxPC3 cells assessed as reduction in cell growth incubated for 72 hrs by MTS assay

[5] = target: T2, MAOB (amine oxidase [flavin-containing] B) (Homo sapiens, UniProt P27338); assay: Inhibition of MAOB (unknown origin) using luminogenic substrate at 10 uM incubated for 1 hr by luminescence based assay relative to control; conditions: MAOB enzyme (unknown origin), probe luminogenic substrate
T2 sequence (P27338 whole entry): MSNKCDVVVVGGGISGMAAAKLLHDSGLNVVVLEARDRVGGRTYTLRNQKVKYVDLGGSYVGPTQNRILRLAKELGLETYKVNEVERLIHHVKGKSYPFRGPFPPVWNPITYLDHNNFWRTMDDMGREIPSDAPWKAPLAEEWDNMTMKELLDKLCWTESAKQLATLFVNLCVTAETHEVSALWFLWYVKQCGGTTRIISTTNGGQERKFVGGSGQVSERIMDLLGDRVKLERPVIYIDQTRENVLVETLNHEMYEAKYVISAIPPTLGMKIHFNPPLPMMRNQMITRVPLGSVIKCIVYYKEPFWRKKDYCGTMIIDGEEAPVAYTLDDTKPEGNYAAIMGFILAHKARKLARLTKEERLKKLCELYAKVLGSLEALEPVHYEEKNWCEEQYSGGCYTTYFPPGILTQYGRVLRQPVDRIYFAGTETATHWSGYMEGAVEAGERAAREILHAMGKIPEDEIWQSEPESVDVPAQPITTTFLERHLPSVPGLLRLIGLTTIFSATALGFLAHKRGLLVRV

[6] = target: T3, Amine oxidase [flavin-containing] A (Homo sapiens, UniProt P21397); assay: Inhibition of MAOA (unknown origin) using luminogenic substrate incubated for 1 hr by luminescence based assay
T3 sequence (P21397 whole entry): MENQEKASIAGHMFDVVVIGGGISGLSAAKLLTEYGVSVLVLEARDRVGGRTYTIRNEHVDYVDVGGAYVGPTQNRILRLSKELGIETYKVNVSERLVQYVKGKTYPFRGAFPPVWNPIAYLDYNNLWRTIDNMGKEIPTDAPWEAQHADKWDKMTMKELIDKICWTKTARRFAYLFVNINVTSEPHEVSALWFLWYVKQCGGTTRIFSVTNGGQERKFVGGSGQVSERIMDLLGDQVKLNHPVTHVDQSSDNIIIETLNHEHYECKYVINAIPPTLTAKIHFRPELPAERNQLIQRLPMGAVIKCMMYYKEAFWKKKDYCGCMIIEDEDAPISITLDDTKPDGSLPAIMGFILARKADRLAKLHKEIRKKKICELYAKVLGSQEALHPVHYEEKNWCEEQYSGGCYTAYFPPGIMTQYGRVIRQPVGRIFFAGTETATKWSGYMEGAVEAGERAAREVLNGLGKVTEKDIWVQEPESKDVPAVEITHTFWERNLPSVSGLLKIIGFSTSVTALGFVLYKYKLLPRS

Spermine oxidase [7] = target: T1, Spermine oxidase; assay: Inhibition of SMOX (unknown origin) assessed as decrease in spermidine formation using spermine as substrate treated with compound 2 mins prior to substrate addition followed by further incubation for 1 hr by HPLC analysis
cells = conditions: Homo sapiens, MIA PaCa-2, 72 h
Description: Antiproliferative activity against human MiaPaCa cells assessed as reduction in cell growth incubated for 72 hrs by MTS assay

LSD1/CoREST complex = LSD1/CoREST complex (Homo sapiens, UniProt O60341); assay: Inhibition of recombinant LSD1/CoREST (unknown origin) incubated for 30 mins to 4 hrs by fluorescence based assay; format: protein-complex assay
[8] = target: T4, Amine oxidase [flavin-containing] B (Homo sapiens, UniProt P27338); assay: Inhibition of MAOB (unknown origin) using luminogenic substrate incubated for 1 hr by luminescence based assay
T4 sequence (P27338 whole entry): T2 sequence (P27338 whole entry)

[9] = target: T5, MAOA (amine oxidase [flavin-containing] A) (Homo sapiens, UniProt P21397); assay: Inhibition of MAOA (unknown origin) using luminogenic substrate at 10 uM incubated for 1 hr by luminescence based assay relative to control; conditions: MAOA enzyme (unknown origin), probe luminogenic substrate
T5 sequence (P21397 whole entry): T3 sequence (P21397 whole entry)

RAW264.7 = assay: Inhibition of reactive oxygen species formation in mouse RAW264.7 cells infected with Helicobacter pylori; format: functional, cell-based
BXPC-3 [10] = assay: Antiproliferative activity against human BxPC3 cells assessed as reduction in cell growth at 10 to 100 uM incubated for 72 hrs by MTS assay relative to control; format: functional

| SMILES | IC50 [1] [µM] | inhibition (Spermine oxidase [2]) [%] | Ratio IC50 (Spermine oxidase [3]) | IC50 (BXPC-3 [4]) [µM] | inhibition at 1 h, 10 µM [5] [%] | IC50 [6] [µM] | IC50 (Spermine oxidase [7]) [µM] | IC50 (cells) [µM] | IC50 (LSD1/CoREST complex) [µM] | IC50 [8] [µM] | inhibition at 1 h, 10 µM [9] [%] | inhibition (RAW264.7) | inhibition (INH) (BXPC-3 [10]) [%] |
| --- | --- | --- | --- | --- | --- | --- | --- | --- | --- | --- | --- | --- | --- |
| Nc1n[nH]c(NCc2ccccc2Oc2ccc(-c3ccccc3)cc2)n1 | > 200 | 25.7 | 3.5 | 61.5 | 26.4 | 50 | 25.7 | 30 to 200 | – | – | – | – | – |
| Nc1n[nH]c(NCc2ccccc2Oc2ccccc2)n1 | > 200 | 0 | – | – | 18.8 | 50.2 | > 200 | – | – | – | – | – | – |
| CC(C)(C)c1ccc(Oc2ccccc2CNc2nc(N)n[nH]2)cc1 | > 200 | 0 | – | – | 32.3 | 61.5 | > 200 | – | – | – | – | – | – |
| C=C=CCNCCCCNCC=C=C | – | 4.8 | – | – | 0 | > 200 | 89.7 | – | > 100 | > 200 | 0 | – | – |
| Cc1ccc(C(C)C)c(Oc2ccccc2CNc2nc(N)n[nH]2)c1 | > 200 | 13.9 | – | – | 49.7 | 55.5 | > 200 | – | – | – | – | – | – |
| Nc1nnc(NCc2c(Cl)cccc2Oc2ccccc2)[nH]1 | – | 28 | – | – | 0 | > 200 | 178 | 2.66 | – | > 200 | 0 | Active | – |
| CSc1ccc(Oc2ccccc2CNc2nc(N)n[nH]2)cc1 | > 200 | 0 | – | – | 31.7 | 38.4 | > 200 | – | – | – | – | – | – |
| Cc1cc(C)cc(Oc2ccccc2CNc2nc(N)n[nH]2)c1 | > 200 | 0 | – | – | 83.4 | 91.4 | > 200 | – | – | – | – | – | – |
| Cc1cccc(Oc2ccccc2CNc2nc(N)n[nH]2)c1C | > 200 | 0 | – | – | 68.6 | > 200 | > 200 | – | – | – | 0 | – | – |
| Nc1n[nH]c(NCc2ccccc2Oc2ccc(Br)cc2C(F)(F)F)n1 | > 200 | 0 | – | > 100 | 90.1 | 3 | 121 | 30 to 200 | – | – | – | – | – |
| Nc1n[nH]c(NCc2c(Cl)cccc2Oc2ccc3ccccc3c2)n1 | – | 23.6 | – | – | 0 | > 200 | 163 | – | – | > 200 | 0 | – | – |
| N[C@@H]1C[C@H]1c1ccccc1.N[C@H]1C[C@@H]1c1ccccc1 | – | 0 | – | – | – | – | – | – | – | – | – | – | – |
| Nc1n[nH]c(NCc2c(Cl)cccc2Oc2cccc3ccccc23)n1 | – | 19 | – | > 100 | 7.12 | > 200 | 148 | 30 to 200 | 0.19 to 0.23 | > 200 | 0 | – | – |
| Nc1n[nH]c(NCc2ccccc2Oc2ccc3ccccc3c2)n1 | > 200 | 0 | – | – | 81.6 | 79.2 | > 200 | – | – | – | – | – | – |
| Nc1ccn([C@@H]2O[C@H](CO)[C@@H](O)C2(F)F)c(=O)n1 [GEMCITABINE] | – | – | – | 5.71 | – | – | – | 1.86 | – | – | – | – | 30 |
| COc1cc(OC)cc(Oc2ccccc2CNc2nc(N)n[nH]2)c1 | > 200 | 0 | – | – | 17.1 | > 200 | > 200 | – | – | – | 0 | – | – |
| Nc1n[nH]c(NCc2ccccc2Oc2ccc(F)cc2)n1 | > 200 | 0 | – | – | 40.7 | 89.3 | > 200 | – | – | – | – | – | – |
